In paper PMC3816702, “The Three Catecholics Benserazide, Catechol and Pyrogallol are GPR35 Agonists” (Pharmaceuticals, 2013):

Tests used:
[1] = system: parental U2OS cells; test: DMR agonist assay in parental U2OS cells; format: cell-based; conditions: parental U2OS cells without GPR35
Experimental: (§1) DMR assays were performed using an Epic® system (Corning Inc., Corning, NY, USA). This system records a ligand-induced dynamic mass redistribution (DMR) signal of live cells as a shift in resonant wavelength (in picometer, pm) of a resonant waveguide grating biosensor. The DMR signal obtained is a real-time kinetic response that provides a holistic view of ligand-receptor interaction(s) and its functional consequence in the cells. For HT-29 cells 30,000 cells per well were seeded into 384well Epic® biosensor plates (Corning) and cultured overnight. For U2OS and U2OS-GPR35-bla cells 18,000 cells per well were seeded and cultured overnight. These cells were then washed twice using a plate washer, maintained with Hank’s balanced salt solution (1 × HBSS) and further incubated inside the Epic® system for 1 h. DMR agonist profiling proceeds with a 2-min baseline, followed by compound addition and monitoring the compound-induced responses for about 1 h. […] All DMR signals were background corrected.

[2] = target: T1, GPR35 (Homo sapiens, UniProt Q9HC97); test: DMR agonist assay in engineered U2OS-GPR35-bla cells; format: cell-based; parameters: host or cells: U2OS (Tango U2OS-GPR35-bla); conditions: DMR amplitude at 8min poststimulation; n = 4
Experimental: as §1
Target sequence in this assay (Q9HC97 whole entry, species assumed): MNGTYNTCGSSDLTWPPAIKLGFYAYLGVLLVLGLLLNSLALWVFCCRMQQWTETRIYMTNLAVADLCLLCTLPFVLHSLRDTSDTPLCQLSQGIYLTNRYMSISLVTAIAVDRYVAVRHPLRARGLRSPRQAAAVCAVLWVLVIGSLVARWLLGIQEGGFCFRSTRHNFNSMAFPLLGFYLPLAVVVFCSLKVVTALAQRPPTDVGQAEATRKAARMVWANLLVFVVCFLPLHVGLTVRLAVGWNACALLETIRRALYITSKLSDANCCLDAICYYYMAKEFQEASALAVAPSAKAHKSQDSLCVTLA

[3] = target: T1, GPR35; test: Tango β-arrestin translocation gene reporter assay in U2OS-GPR35-bla cells; format: cell-based; parameters: host or cells: U2OS (Tango U2OS-GPR35-bla); conditions: for Efficacy Tango (%zaprinast): normalized to maximal response of zaprinast (100%); for EC50 / Potency EC50, Tango: β-arrestin translocation, tested up to 1mM, mean ± S.D.; for EC50: n = 4, read-out: Potency EC50, Tango; for Potency EC50, Tango: n = 4
Experimental: (§2) Tango assays were performed in engineered U2OS-GPR35-bla cell line. This cell line permits an endpoint measurement of the activity of agonists specific to the GPR35 activation-induced β-arrestin translocation. Specifically, 10000 U2OS-GPR35-bla cells per well were seeded in 384-well, black-wall, clear bottom assay plates with low fluorescence background (Corning). After overnight culture, the cells were stimulated with ligands for 5 h at 37 °C under 5% CO2, and then loaded with the cell permeable LiveBLAzer™ fluorescence resonance energy transfer (FRET) B/G substrate. After 2 h incubation the coumarin to fluorescein ratio was measured using Victor 4 plate reader (PerkinElmer, Waltham, MA, USA).
Target sequence in this assay (Q9HC97 whole entry, species assumed): as above

[4] = target: T1, GPR35; test: ML-145 inhibition of Tango signals of agonists at a fixed dose in U2OS-GPR35-bla cells; format: cell-based; parameters: host or cells: U2OS (Tango U2OS-GPR35-bla); conditions: label = agonist at fixed dose: 10 μM zaprinast, 10 μM YE210, 50 μM gallic acid, 10 μM pyrogallol, 32 μM benserazide, 250 μM 3-methoxycatechol
Experimental: as §2
Target sequence in this assay (Q9HC97 whole entry, species assumed): as above

[5] = target: T1, GPR35; test: DMR agonist assay in native HT-29 cells; format: cell-based; parameters: label-free DMR assays in both native HT-29 and engineered U2OS-GPR35-bla cells; host or cells: HT-29; conditions: for Efficacy DMR: maximal DMR amplitude; for EC50 / Potency EC50, DMR: mean ± S.D.; for EC50: n = 4, read-out: Potency EC50, DMR; for Potency EC50, DMR: n = 4
Experimental: as §1
Target sequence in this assay (Q9HC97 whole entry): as the sequence (Q9HC97 whole entry, species assumed) above

[6] = target: T1, GPR35; test: DMR antagonist assay in HT-29 cells (preincubation with antagonist, then agonist at fixed dose); format: cell-based; parameters: label-free DMR assays in both native HT-29 and engineered U2OS-GPR35-bla cells; host or cells: HT-29; conditions: 500 μM catechol; for Blockage of the agonist-induced DMR by ML-145: label = agonist at fixed dose: 64 μM propyl gallate, 200 or 100 μM syringic acid, 16 μM benserazide, 20 μM (+)-taxifolin, 100 μM fenoldopam; for Effect of antagonist on the catechol DMR: label = antagonist
Experimental: as §1
Target sequence in this assay (Q9HC97 whole entry): as the sequence (Q9HC97 whole entry, species assumed) above

[7] = target: T1, GPR35; conditions: previously found; cited from earlier work
Target sequence in this assay (Q9HC97 whole entry): as the sequence (Q9HC97 whole entry, species assumed) above

Efficacy Tango (%zaprinast) [3]	Blockage of the agonist Tango signal by ML-145 [4]	Efficacy DMR [5]	EC50 [5]	Blockage of the agonist-induced DMR by ML-145 [6]	Potency EC50, Tango [3]	Structure (SMILES)	further results
48 ± 4 %zaprinast	dose-dependently blocked	296 pm	11 ± 0.9 µM	partially blocked		NC(CO)C(=O)NNCc1ccc(O)c(O)c1O (stereo not drawn) [Benserazide]	DMR activity in the parental U2OS cells [1]: inactive; EC50 [2]: 1 ± 0.13 µM; EC50 [3]: 7.5 ± 0.6 µM
0 %zaprinast		268 pm	206 ± 19 µM	completely blocked	inactive	Oc1ccc(C2CNCCc3c2cc(O)c(O)c3Cl)cc1 (stereo not drawn) [Fenoldopam, fenoldopam, reference compound]	
>8 %zaprinast		210 pm	20.2 ± 1.9 µM	completely blocked	weak	CCCOC(=O)c1cc(O)c(O)c(O)c1 [Propyl gallate, propyl gallate]	
					inactive	Oc1cc(O)c2c(c1)O[C@@H](c1ccc(O)c(O)c1)[C@H](O)C2 [(−)-Catechin, (−)-catechin]	Potency EC50, DMR [5]: inactive
	dose-dependently blocked					CCCOc1ccccc1-c1nc2nn[nH]c2c(=O)[nH]1 [zaprinast, Zaprinast]	DMR activity in the parental U2OS cells [1]: inactive
0 %zaprinast		207 pm	319 ± 27 µM	completely blocked	inactive	Oc1ccccc1O [Catechol, catechol]	
	dose-dependently blocked					Cc1c(C(=O)O)sc2c(Br)csc12 [YE210]	
>10 %zaprinast		151 pm	147 ± 23 µM	completely blocked	weak	COc1cc(C(=O)O)cc(OC)c1O [Syringic acid, syringic acid]	
113 ± 5 %zaprinast	dose-dependently blocked	210 pm	1.3 ± 0.1 µM			Oc1cccc(O)c1O [Pyrogallol, pyrogallol]	EC50 [3]: 4.5 ± 0.4 µM

The next lines start with the molecule.

Structure (SMILES)	Efficacy Tango (%zaprinast) [3]	Blockage of the agonist Tango signal by ML-145 [4]	Efficacy DMR [5]	EC50 [5]	Blockage of the agonist-induced DMR by ML-145 [6]	Potency EC50, Tango [3]	further results
O=C(O)/C=C/c1ccc(O)c(O)c1 [caffeic acid]							GPR35 agonist activity (DMR in HT-29), in words [7]: weak partial agonist
COC(=O)[C@@H]1[C@H]2C[C@H]3c4[nH]c5ccccc5c4CCN3C[C@@H]2CC[C@@H]1O [yohimbine, reference compound]							Effect of antagonist on the catechol DMR [6]: neither the β-adrenergic receptor antagonist betaxolol nor α2-adrenergic receptor antagonist yohimbine had any obvious effects
CC(C)NCC(O)COc1ccc(CCOCC2CC2)cc1 (stereo not drawn) [betaxolol, reference compound]							Effect of antagonist on the catechol DMR [6]: neither the β-adrenergic receptor antagonist betaxolol nor α2-adrenergic receptor antagonist yohimbine had any obvious effects
COc1cccc(O)c1O [3-Methoxycatechol, 3-methoxycatechol]	41 ± 3 %zaprinast	dose-dependently blocked	219 pm	147 ± 15 µM			EC50 [3]: 80.7 ± 6.3 µM
COc1ccc(C=CC(=O)O)cc1OC [3,4-Dimethoxycinnamic acid, 3,4-dimethoxycinnamic acid]						inactive	Potency EC50, DMR [5]: inactive
O=C(O)c1cc(O)c(O)c(O)c1 [Gallic acid, gallic acid, reference compound]	77 ± 5 %zaprinast	dose-dependently blocked		1.16 ± 0.09 µM			EC50 [3]: 12.6 ± 1 µM
O=C1c2c(O)cc(O)cc2O[C@H](c2ccc(O)c(O)c2)[C@H]1O [(+)-Taxifolin, (+)-taxifolin]	>8 %zaprinast		170 pm	6.6 ± 0.5 µM	completely blocked	weak	
